Experimental data: patent publication US20230271969A1, “NITROGEN-CONTAINING FUSED RING DERIVATIVE INHIBITOR, PREPARATION METHOD THEREFOR AND USE THEREOF” (Shanghai Hansoh Biomedical Co., Ltd., priority 2020, published 2023)

System: Senktide-induced bilateral ovariectomy rats
Experiment: Tail skin temperature in a Senktide-induced bilateral ovariectomy rat model
Assay type: in vivo
Conditions: OVX SD rats, oral 30 mg/kg, 30 min before s.c. Senktide, tail skin temperature over 75 min
Source text: Pharmacodynamic Study of the Test Compounds on Tail Skin Temperature in a Senktide-Induced Bilateral Ovariectomy Rat Model
To evaluate the effect of the test compounds on tail skin temperature in Senktide-induced bilateral ovariectomy rats.
2.3. Experimental Animals • Ten-Week-old female bilateral ovariectomy SD rats were purchased from Beijing Vital River Laboratory Animal Technology Co., Ltd. The animals were housed in a SPF grade animal facility with 5 SD rats per cage. The cages, bedding, feed and water were disinfected at high temperatures before use. All animals had free access to food and water.
Ten-week-old female SD rats were subjected to bilateral ovariectomy and recovered for two weeks, and then randomly divided into negative control group, model group and drug administration group (8 rats per group), based on body weight. The probe was attached to the dorsal surface of the rat tail with medical tape, 1-2 cm away from the tailhead of the rat.
The vehicle was administered orally to the negative control group and the model group, and different test compounds were administered orally to each drug administration group at a dose of 30 mg/kg and a volume of 10 mL/kg.
Thirty minutes after the oral administration of the vehicle or test compound, the negative control group was injected subcutaneously with normal saline (at a volume of 5 mL/kg); the model group and each drug administration group were injected subcutaneously with 0.2 mg/mL of Senktide (at a volume of 5 mL/kg) to induce the hot flashes-like symptom.
The change in tail skin temperature (ΔTST) at each time point relative to time point 0 was calculated, the ΔTST-time curve of the change in tail skin temperature was plotted, and the area under curve (AUCΔTST) was calculated. ΔTST=TSTn−TST0, TST0 is the tail skin temperature at 0 minute before the subcutaneous injection of normal saline or Senktide; TSTn is the tail skin temperature at the n minute after the subcutaneous injection.
AUCΔTST=Σ(ΔTSTn+ΔTSTn+5)*5/2

`[2H]c1cc(C(=O)N2CCn3c(-c4nc(Cl)ns4)nnc3[C@H]2C)ccc1F` [Example 56, (R)-(3-(3-Chloro-1,2,4-thiadiazol-5-yl)-8-methyl-5,6-dihydro-[1,2,4]triazolo[4,3-a]pyrazin-7(8H)-yl)(4-fluorophenyl-3-d)methanone] gave an AUCΔTST of 53.8 ± 19.8 °C · min.
